Test results published in patent publication US20210145830A1, “MATERIALS AND METHODS FOR TREATING CANCER” (Mayo Foundation for Medical Education and Research, priority 2018, published 2021).
“Also recorded” adds a separate entry of the source.

How the values were obtained:
CART19 and UTDs = assay: Ex vivo T cell expansion and CART generation with TP0903; format: cell-based; conditions: low dose TP0903 during ex vivo manufacture
Excerpt: FIG. 14 contains graphs showing CART19 or untransduced T cell expansion with or without varied concentrations of TP0903. Low dose TP0903 enhanced the expansion of CART19 and UTDs during ex vivo manufacture of CARTs.
The murine anti-CD19 chimeric antigen receptor (single chain variable fragment derived from clone FMC63, CD8 hinge, 4-1BB costimulatory domain and CD3 zeta signaling domain) was generated de novo and cloned into a third generation lentivirus. Normal donor T cells were […] selected using negative selection Kit (Stem Cell), and expanded in vitro using anti-CD3/CD28 Dynabeads (Invitrogen, Life Technologies, Grand Island, N.Y., USA, added on the first day of culture). T cells were transduced with lentiviral supernatant one day following stimulation at a multiplicity of infection (MOI) of 3. The anti-CD3/CD28 Dynabeads were removed on day 6 and T cells were grown in T cell media (X-vivo 15 media, human serum 5%, penicillin, streptomycin and glutamax). CART cells were then cryopreserved on day 8 for future experiments. Prior to all experiments, T cells were thawed and rested overnight at 37° C.
CART cells were generated with increasing doses of TP0903. T cells were isolated (negative selection, STEM CELL kit) and stimulated with CD3/CD28 beads on day 0. On day 1, T cells were transduced with CAR19 lentivirus at MOI of 3. […]

CART19 = CART19 proliferation assay in the presence of TP0903; format: cell-based; conditions: 5 days
Experimental: FIG. 2 contains an exemplary timeline for a CART19 proliferation assay in the presence of TP0903. UTDs or CART19 were incubated with Jeko in the presence of TP0903 in 1:1 ratio. At day 5, total T cell numbers were evaluated with CountBright quantification.
T cells were washed and re-suspended at 1×10^7/mL in 100 μL of phosphate-buffered saline and labeled with 100 μL of carboxyfluorescein succinimidyl ester (CFSE) 2.5 μM (Life Technologies) for 5 minutes at 37° C. The reaction was then quenched with cold R10, and the cells were washed three times. Targets were irradiated at a dose of 100 Gy. T cells were incubated at a 1:1 ratio with irradiated target cells for 120 hours. Cells were then harvested, stained for CD3, CAR and Live Dead aqua (Invitrogen), and Countbright beads (Invitrogen) were added prior to flow cytometric analysis.
UTDs or CART19 were incubated with Jeko cell line or primary CLL cells in the presence of TP0903, at 1:1 ratio for 5 days. At the end of the experiment, cells were harvested and stained for CD3, live dead staining was performed, and counti bright beads were added prior to flow cytometric analyses (FIG. 2). Absolute T cell numbers were calculated based on this. […] Low doses of TP0903 (10 nM) increased the number of CART19 cells. A high dose of TP0903 (>100 nM) decreased the number of CART19.

JeKo = assay: MCL (JeKo) xenograft in NSG mice with re-challenge; format: in vivo
Experimental: FIGS. 19A-F. A. Inhibitory receptors expression in naïve T cells after TCR activation with CD3 stimulation in the increasing dose of TP0903. Naïve T cells were incubated with anti CD3/CD28 beads at a 1 to 3 ratio in the presence of TP0903. At day 3, T cells were stained with PD-1, TIM-3, LAG-3, and ICOS. […] Teff cells were isolated by negative selection using Human T Cell Isolation Kit. Tregs were isolated by negative selection using the human CD4^+CD127^lowCD25^+ Treg isolation kit. Teff and Treg were stimulated with anti CD3/CD28 beads and 400 U/ml of IL-2. At day 5, total T cells were evaluated via CountBright quantification. C. CART19 cytokine assay in the presence TP0903. UTDs or CART19 were incubated with Jeko in the presence of TP-0903 at a 1 to 1 ratio. Supernatant was harvested and analyzed by 32-plex Luminex array after 3 days. D. Inhibitory receptors expression in CART19 cells in the presence TP0903. UTDs or CART19 were incubated with Jeko at a 1 to 1 E/T ratio in the presence of TP0903. At day 5, T cells were stained with PD-1 (left), LAG-3 (right), and TIM-3. E. CART19 cytotoxicity in the presence TP0903: CART19 or UTDs were co-cultured at different effector-to-target ratios (E:T) with luciferase-positive Jeko in the presence of increasing doses of TP0903. Cell killing was assessed by luminescence at 24 hours. F. TP0903 enhanced CART cell persistence in vivo. NSG mice were injected with 1.0×10^6 luciferase-positive JeKo on day −7. At day 0, mice were randomized according to tumor burden to receive vehicle, TP0903 20 mg/kg/day, […] CART19, or TP0903 20 mg/kg/day+0.5×10^6 CART19. At day 21, mice were re-challenged with JeKo.
FIG. 25A-E. Impact of the combinatory therapy in vivo. A. Schema for in vivo experiment. B and C. […] D. Reduction of MCP-1, which is known as CRS related cytokine in the presence of TP0903. E. Expansion of circulating CART19 after re-challenging Luciferase positive JeKo-1.
NOD-SCID-γ chain−/− (NSG) originally obtained from Jackson Laboratories were maintained in our laboratory under an IACUC approved breeding protocol. Schemas of the utilized xenograft models are discussed in detail in the relevant figures and the Results section. Cells were injected in 200 μL of phosphate-buffered saline at the indicated concentration into the tail veins of mice. Bioluminescent imaging was performed using a Xenogen IVIS-200 Spectrum camera. Images were acquired and analyzed using Living Image version 4.4 (Caliper LifeSciences, Inc., PerkinElmer).
To investigate the effect of AXL RTK inhibition of CART cells with TP0903 in vivo, MCL xenografts were established through the injection of 1.0×10^6 of JeKo into NSG mice. A week after the injection of JeKo, mice were treated with either vehicle alone, TP0903 (20 mg/kg/day) alone, 0.5×10^6 of CART19 alone, or TP0903 (20 mg/kg/day)+0.5×10^6 of CART19. Three weeks after the treatment, mice were rechallenged with 1.0×10^6 of JeKo.

## CN1CCN(Cc2ccc(Nc3ncc(Cl)c(Nc4ccccc4S(=O)(=O)N(C)C)n3)cc2)CC1 [TP0903]
CART19 and UTDs
  T cell expansion ex vivo and CART cell generation (CART19 and UTDs): enhanced
CART19; 1:1 with Jeko or primary CLL cells
  CART cell specific proliferation: did not impair; also recorded: does not inhibit
CART19; high dose of TP0903 (>100 nM)
  number of CART19 cells: decreased
CART19; low doses of TP0903 (10 nM)
  number of CART19 cells: increased
JeKo; TP0903 20 mg/kg/day + 0.5×10^6 CART19, re-challenge at three weeks
  outcome of JeKo re-challenge: successfully rejected
JeKo; TP0903 20 mg/kg/day + CART19
  CART cell persistence in vivo: enhanced
JeKo; combination of CART19 and TP0903 vs CART19 monotherapy
  tumor burden: superior low tumor burden
JeKo; combination, after re-challenging Luciferase positive JeKo-1
  circulating CART19: Expansion
JeKo; in vivo, in the presence of TP0903
  MCP-1 (CRS related cytokine): Reduction
